Source: US9145392B2, “Imidazole amines as modulators of kinase activity” (Merck Patent GmbH, priority 2011, dated 2015)
pIC50: −log10 of the molar value.

Columns and labels:
[1] = molecular target: P70S6K (T412E mutant) (Homo sapiens (Human), UniProt P23443, T412E); experiment: P70S6K enzyme assay; format: biochemical; conditions: read-out: IC50 p70S6K
Summary of the method: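 Phosphorylated product and substrate peptide separated by microfluidic capillary electrophoresis (Caliper LabChip 3000), product peaks resolving before substrate.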

[2] = molecular target: His-AKT (Full Length) (Homo sapiens (Human), UniProt P31749); experiment: AKT enzyme assay; format: biochemical; conditions: read-out: IC50 AKT
Sequence of His-AKT (Full Length) (P31749 whole entry): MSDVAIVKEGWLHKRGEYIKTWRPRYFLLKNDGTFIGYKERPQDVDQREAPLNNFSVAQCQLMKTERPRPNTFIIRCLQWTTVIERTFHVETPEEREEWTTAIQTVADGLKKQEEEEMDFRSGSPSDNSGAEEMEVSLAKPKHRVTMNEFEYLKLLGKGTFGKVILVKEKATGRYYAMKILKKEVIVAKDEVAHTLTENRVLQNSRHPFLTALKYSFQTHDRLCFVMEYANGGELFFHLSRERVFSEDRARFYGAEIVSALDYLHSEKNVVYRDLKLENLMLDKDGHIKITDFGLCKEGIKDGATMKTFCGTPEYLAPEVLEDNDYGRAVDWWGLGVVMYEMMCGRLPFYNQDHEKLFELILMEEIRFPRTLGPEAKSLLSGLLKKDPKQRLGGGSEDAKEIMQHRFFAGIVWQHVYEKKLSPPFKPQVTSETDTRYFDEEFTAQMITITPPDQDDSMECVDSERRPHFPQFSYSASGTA

Sequence of P70S6K (T412E mutant) (P23443 whole entry T412E): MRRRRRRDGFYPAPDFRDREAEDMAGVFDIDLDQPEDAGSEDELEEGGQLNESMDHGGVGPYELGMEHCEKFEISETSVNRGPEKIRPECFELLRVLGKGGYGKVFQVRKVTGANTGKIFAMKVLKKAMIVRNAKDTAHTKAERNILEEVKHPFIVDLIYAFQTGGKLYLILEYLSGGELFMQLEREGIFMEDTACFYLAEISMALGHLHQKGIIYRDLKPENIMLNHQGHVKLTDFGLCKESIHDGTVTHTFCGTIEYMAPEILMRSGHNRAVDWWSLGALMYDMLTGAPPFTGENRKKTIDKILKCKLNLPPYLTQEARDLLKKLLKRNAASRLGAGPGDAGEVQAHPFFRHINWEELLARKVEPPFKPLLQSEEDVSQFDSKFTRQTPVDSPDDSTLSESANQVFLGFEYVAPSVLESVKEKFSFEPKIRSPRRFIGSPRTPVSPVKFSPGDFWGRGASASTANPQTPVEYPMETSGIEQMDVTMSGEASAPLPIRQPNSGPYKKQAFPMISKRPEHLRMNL

Row | SMILES | pIC50 [1] | pIC50 [2]
1 | Nc1ncnc(N2CCC(c3nc(-c4ccc(C(F)(F)F)c(F)c4)cn3CCN3CCCC3)CC2)c1Br [Compound 229] | 8.20 | 7.15
2 | CCc1c(N)ncnc1N1CCC(c2nc(-c3ccc(F)c(C(F)(F)F)c3)cn2CCN2CCC2)CC1 [Compound 230] | 8.68 | 8.39
3 | CCc1c(N)ncnc1N1CCC(c2nc(-c3cccc(F)c3)cn2CCN2CCCC2)CC1 [Compound 231] | 8.44 | 7.34
4 | CCc1c(N)ncnc1N1CCC(c2nc(-c3ccc(F)cc3)cn2CCN2CCCC2)CC1 [Compound 232] | 8.64 | 7.70
5 | CCc1c(N)ncnc1N1CCC(c2nc(-c3ccc(F)c(F)c3)cn2CCN2CCCC2)CC1 [Compound 233] | 8.96 | 8.09
6 | CCc1c(N)ncnc1N1CCC(c2nc(-c3ccc(C(F)(F)F)c(F)c3)cn2CCN2CCCC2)CC1 [Compound 234] | 7.89 | 6.33
7 | Nc1ncnc(N2CCC(c3nc(-c4ccc(C(F)(F)F)c(F)c4)cn3CCN3CCCC3)CC2)c1Cl [Compound 235] | 8.00 | 6.00
8 | Nc1ncnc(N2CCC(c3nc(-c4cccc(F)c4)cn3CCN3CCCC3)CC2)c1Cl [Compound 236] | 9.30 | 8.09
9 | Nc1ncnc(N2CCC(c3nc(-c4ccc(F)cc4)cn3CCN3CCCC3)CC2)c1Cl [Compound 237] | 9.10 | 8.48
10 | Nc1ncnc(N2CCC(c3nc(-c4ccc(F)c(F)c4)cn3CCN3CCCC3)CC2)c1Cl [Compound 238] | 9.05 | 8.49
11 | C=Cc1c(N)ncnc1N1CCC(c2nc(-c3ccc(C(F)(F)F)c(F)c3)cn2CCN2CCCC2)CC1 [Compound 239] | 8.36 | 6.68
12 | C=Cc1c(N)ncnc1N1CCC(c2nc(-c3cccc(F)c3)cn2CCN2CCCC2)CC1 [Compound 240] | 9.05 | 7.68
13 | C=Cc1c(N)ncnc1N1CCC(c2nc(-c3ccc(F)cc3)cn2CCN2CCCC2)CC1 [Compound 241] | 8.54 | 7.80
14 | C=Cc1c(N)ncnc1N1CCC(c2nc(-c3ccc(F)c(F)c3)cn2CCN2CCCC2)CC1 [Compound 242] | 8.85 | 8.01
15 | Nc1cc(N2CCC(c3nc(-c4ccc(F)c(F)c4)cn3CCN3CCCC3)CC2)ncn1 [Compound 243] | 7.74 | 7.20
16 | Nc1cc(N2CCC(c3nc(-c4cccc(F)c4)cn3CCN3CCCC3)CC2)ncn1 [Compound 244] | 7.60 | 6.68
17 | CCc1c(N)ncnc1N1CCC(c2nc(-c3ccc(C(F)(F)F)c(F)c3)cn2CCN2CC[C@H](F)C2)CC1 [Compound 245] | 8.28 | 7.19
18 | CCc1c(N)ncnc1N1CCC(c2nc(-c3ccc(C(F)(F)F)c(F)c3)cn2CCN2CC[C@@H](F)C2)CC1 [Compound 246] | 8.77 | 7.60
19 | CCc1c(N)ncnc1N1CCC(c2nc(-c3ccc(C(F)(F)F)c(F)c3)cn2CCN2CCC(F)(F)CC2)CC1 [Compound 247] | 8.26 | 6.28
20 | CCc1c(N)ncnc1N1CCC(c2nc(-c3ccc(C(F)(F)F)c(F)c3)cn2CCN2CCCC(F)(F)C2)CC1 [Compound 248] | 7.80 | 6.00
21 | CCc1c(N)ncnc1N1CCC(c2nc(-c3ccc(C(F)(F)F)c(F)c3)cn2CCN2CCC(F)CC2)CC1 [Compound 249] | 8.00 | 7.07
22 | CCc1c(N)ncnc1N1CCC(c2nc(-c3ccc(C(F)(F)F)c(F)c3)cn2CCN2CCCC(F)C2)CC1 (centres unmarked) [Compound 250] | 8.24 | 6.68
23 | CCc1c(N)ncnc1N1CCC(c2nc(-c3ccc(Cl)c(F)c3)cn2CCN2CCCC2)CC1 [Compound 251] | 8.59 | 7.12
24 | CCc1c(N)ncnc1N1CCC(c2nc(-c3ccc(F)c(Cl)c3)cn2CCN2CCCC2)CC1 [Compound 252] | 9.70 | 9.40
25 | Nc1ncnc(N2CCC(c3nc(-c4ccc(C(F)(F)F)c(F)c4)cn3CCN3CCCCC3)CC2)c1C1CCC1 [Compound 253] | 7.72 | 7.55
